Data: patent US11000601B2, “Conjugated biological molecules, pharmaceutical compositions and methods” (OBI Pharma, Inc., priority 2016, dated 2021)
“And” between values parts separate entries of the source, which are not always exact repeats. Equal values may be shown once. Square brackets hold non-standard residues; d marks the D form. Peptide text beside a SMILES is read from it. * marks the point of attachment. Dolaproine = CO[C@@H]([C@@H]1CCCN1)[C@@H](C)C(=O)O; Dil = CC[C@H](C)[C@H](NC)[C@@H](CC(=O)O)OC; X1 = C[C@@H](N*)[C@@H](O)c1ccccc1; NMeV = CN[C@H](C(=O)O)C(C)C

Tested on: HPAC tumor cells (ATCC CRL-2119) human pancreatic cancer
Assay: HPAC human pancreatic cancer xenograft model in male BALB/c nude mice: tumor volume, T/C, TGI
Type: in vivo
Conditions: for Tumor Volume (mm^3), Mean: group mean; for Tumor Volume (mm^3), Mean / Tumor Volume (mm^3): QW x 4, ADC (OBI-999) and OBI-888 10 mg/kg IV, MMAE 0.191 mg/kg IP; for Tumor Volume (mm^3): individual animals
Method: The HPAC tumor cells (ATCC CRL-2119) were maintained in vitro as a monolayer culture in 1:1 mixture of Dulbecco's modified Eagle's medium and Ham's F12 medium containing 1.2 g/L sodium bicarbonate, 2.5 mM L-glutamine, 15 mM HEPES and 0.5 mM sodium pyruvate supplemented with 0.002 mg/mL insulin, 0.005 mg/mL transferrin, 40 ng/mL hydrocortisone, 10 ng/mL epidermal growth factor and 5% fetal bovine serum, 100 U/mL penicillin and 100 μg/mL streptomycin at 37° C. in an atmosphere of 5% CO2 in air. The tumor cells were routinely subcultured twice weekly by trypsin-EDTA treatment. The cells growing in an exponential growth phase were harvested and counted for tumor inoculation.
The endpoint was to determine the anti-tumor effects of testing compounds. Tumor size was measured twice weekly in two dimensions using a caliper, and the volume was expressed in mm^3 using the formula: V=0.5 a×b^2 where a and b are the long and short diameters of the tumor, respectively. The tumor size was then used for calculation of T/C values. The T/C value (in percent) is an indication of antitumor effectiveness; T and C are the mean volumes of the treated and control groups, respectively, on a given day. TGI was calculated for each group using the formula: TGI (%)=[1−(Ti−T0)/(Vi−V0)]×100; Ti is the average tumor volume of a treatment group on a given day, T0 is the average tumor volume of the treatment group on day 0, Vi is the average tumor volume of the vehicle control group on the same day with Ti, and V0 is the average tumor volume of the vehicle group on day 0.
Summary statistics, including mean and the standard error of the mean (SEM), are provided for the tumor volume of each group at each time point. Statistical analysis of difference in the tumor volume among the groups were conducted on the data obtained at the best therapeutic time point after the final dose (the 37th day after grouping). A one-way ANOVA was performed to compare the tumor volume among groups, and when a significant F-statistics (a ratio of treatment variance to the error variance) was obtained, comparisons between groups were carried out with Games-Howell test, otherwise they were carried out with Dunnett (2 sided) test. […] All data were analyzed using SPSS 17.0. p<0.05 was considered to be statistically significant.

[1] = 0.191 mg/kg IP once weekly for four weeks, single agent, Day 37

CC[C@H](C)[C@@H]([C@@H](CC(=O)N1CCC[C@H]1[C@H](OC)[C@@H](C)C(=O)N[C@H](C)[C@@H](O)c1ccccc1)OC)N(C)C(=O)[C@@H](NC(=O)[C@@H](NC)C(C)C)C(C)C [MMAE, monomethyl auristatin E] (H-[NMeV]V[Dil][Dolaproine]-X1)
antitumor activity (in words) (0.191 mg/kg IP once weekly for four weeks, single agent): minor antitumor activity
T/C [1]: 75.8%
TGI [1]: 25.2%
mean tumor size [1]: 1,644 mm^3
Tumor Volume (mm^3), Mean (Day 0): 85 mm^3
Tumor Volume (mm^3) (Day 0): 58 mm^3 and 53 mm^3 and 132 mm^3 and 72 mm^3 and 86 mm^3 and 116 mm^3 and 71 mm^3 and 91 mm^3
Tumor Volume (mm^3), Mean (Day 3): 114 mm^3
Tumor Volume (mm^3) (Day 3): 128 mm^3 (2×) and 76 mm^3 and 148 mm^3 and 82 mm^3 and 158 mm^3 and 57 mm^3 and 137 mm^3
Tumor Volume (mm^3), Mean (Day 7): 134 mm^3
Tumor Volume (mm^3) (Day 7): 104 mm^3 and 114 mm^3 and 177 mm^3 and 144 mm^3 and 97 mm^3 and 167 mm^3
Tumor Volume (mm^3), Mean (Day 10): 245 mm^3
Tumor Volume (mm^3) (Day 10): 444 mm^3 and 196 mm^3 and 219 mm^3 and 160 mm^3 and 207 mm^3
Tumor Volume (mm^3), Mean (Day 14): 385 mm^3
Tumor Volume (mm^3) (Day 14): 429 mm^3 and 418 mm^3 (2×) and 268 mm^3 and 390 mm^3
Tumor Volume (mm^3), Mean (Day 17): 464 mm^3
Tumor Volume (mm^3) (Day 17): 590 mm^3 and 452 mm^3 and 510 mm^3 and 321 mm^3 and 448 mm^3
Tumor Volume (mm^3), Mean (Day 21): 551 mm^3
Tumor Volume (mm^3) (Day 21): 649 mm^3 and 692 mm^3 and 581 mm^3 and 383 mm^3 and 451 mm^3
Tumor Volume (mm^3), Mean (Day 24): 672 mm^3
Tumor Volume (mm^3) (Day 24): 748 mm^3 and 705 mm^3 and 822 mm^3 and 511 mm^3 and 571 mm^3
Tumor Volume (mm^3), Mean (Day 28): 858 mm^3
Tumor Volume (mm^3) (Day 28): 1080 mm^3 and 888 mm^3 and 913 mm^3 and 623 mm^3 and 785 mm^3
Tumor Volume (mm^3), Mean (Day 31): 1194 mm^3
Tumor Volume (mm^3) (Day 31): 1174 mm^3 and 1340 mm^3 and 1439 mm^3 and 1030 mm^3 and 989 mm^3
Tumor Volume (mm^3), Mean (Day 35): 1449 mm^3
Tumor Volume (mm^3) (Day 35): 1650 mm^3 and 1656 mm^3 and 1496 mm^3 and 1236 mm^3 and 1208 mm^3
Tumor Volume (mm^3), Mean (Day 37): 1644 mm^3
Tumor Volume (mm^3) (Day 37): 1652 mm^3 and 1963 mm^3 and 1828 mm^3 and 1196 mm^3 and 1580 mm^3
